From US12601000B2, “Method for the hydroxylation of steroids” (ANNIKKI GMBH, priority 2020, dated 2026) come the findings set out here.

For data set [1], the system named is Saccharothrix longispora (DSM-43749). Kind of data set: Test of bacterial strains for 7-hydroxylation of deoxycholic acid. The format is cell-based. The conditions noted are these: deoxycholic acid 0.5 mM, cultured up to 72 h, HPLC and GC/MS. The text has this: (§1) The following bacterial strains were obtained from the German Strain Collection of Microorganisms and Cell Cultures (DSMZ [Deutsche Stammsammlung für Mikroorganismen und Zellkulturen]): Saccharothrix longispora (DSM-43749), Catellatospora citrae (DSM-44097), Streptomyces hygroscopicus subsp. hygroscopicus (DSM-40578) and Asanoa ferruginea (DSM-44099). The strains were cultivated under standard conditions as recommended by DSMZ. […] After a centrifugation step, supernatants of the cultures were extracted with ethyl acetate and analyzed by HPLC and GC/MS.

In data set [2] the test system is Catellatospora citrae (DSM-44097). The description is as above. The conditions noted are these: deoxycholic acid 0.5 mM, cultured up to 72 h, HPLC and GC/MS. It is filed as cell-based.
Excerpt: as §1

For data set [3], the system named is Asanoa ferruginea (DSM-44099). The data set is described as above. The format is cell-based. The conditions noted are these: deoxycholic acid 0.5 mM, cultured up to 72 h, HPLC and GC/MS.
Excerpt: as §1

In data set [4] the test system is Streptomyces hygroscopicus subsp. hygroscopicus (DSM-40578). The data set is described as above. The format is cell-based. The conditions noted are these: deoxycholic acid 0.5 mM, cultured up to 72 h, HPLC and GC/MS.
Excerpt: as §1

Data set [5] is described as follows: Solubility limits of LCA and UDCA in organic solvents. It is filed as physicochemical. The conditions noted are these: organic solvent, organic solvent or mixture, thermodynamic from solid, read-out: solubility limit. As to the method: The organic solvent was added in increments of 100 μL, and the mixture was treated by shaking in a vortex shaker and optionally in an ultrasonic bath. It was visually assessed as to whether a clear solution was present.

In brackets after ≈: the same amount, converted by molar mass. Where two headings read alike, the source gives them in different places. Bounds are passed on as bounds.

As for `C[C@H](CCC(=O)O)[C@H]1CC[C@H]2[C@@H]3CC[C@@H]4C[C@H](O)CC[C@]4(C)[C@H]3C[C@H](O)[C@]12C` [deoxycholic acid, 3α,12α-dihydroxy-5β-cholanic acid], the “7-hydroxylated product of deoxycholic acid in culture supernatant” value was “no indication of 7-hydroxylated products” in data set [1], “no indication of 7-hydroxylated products” in data set [2], “no indication of 7-hydroxylated products” in data set [3] and “a peak was noted the retention time of which corresponds to that of ursocholic acid” in data set [4].

Regarding `C[C@H](CCC(=O)O)[C@H]1CC[C@H]2[C@@H]3[C@@H](O)C[C@@H]4C[C@H](O)CC[C@]4(C)[C@H]3CC[C@]12C` [UDCA, ursodeoxycholic acid], the solubility was 53 mg/mL (≈ 135 mM) in data set [5] (2-butanol); 10 mg/mL (≈ 25.5 mM) in data set [5] (2-butanone); 1.1 mg/mL (≈ 2.8 mM) in data set [5] (CH2Cl2); 21.3 mg/mL (≈ 54.3 mM) in data set [5] (CHCl3/phenol); 2.9 mg/mL (≈ 7.39 mM) in data set [5] (CHCl3); more than 500 mg/mL in data set [5] (DMA). The solubility is more than 500 mg/mL in data set [5] (DMF); more than 500 mg/mL in data set [5] (DMSO); 2 mg/mL (≈ 5.09 mM) in data set [5] (Et2O); 63.4 mg/mL (≈ 161 mM) in data set [5] (Me—THF); 259 mg/mL (≈ 660 mM) in data set [5] (THF); 8.8 mg/mL (≈ 22.4 mM) in data set [5] (acetone). The solubility in data set [5] (cyclohexane) was less than 0.7 mg/mL; in data set [5] (dioxane), 92.6 mg/mL (≈ 236 mM); in data set [5] (ethanol), 54.5 mg/mL (≈ 139 mM); in data set [5] (ethyl acetate (EtOAc)), 2.9 mg/mL (≈ 7.39 mM); in data set [5] (ethylene glycol), 16.6 mg/mL (≈ 42.3 mM); in data set [5] (hexane/EtOAc + 0.01% trifluoroacetic acid (TFA)), less than 0.8 mg/mL. Moreover, the solubility is 12 mg/mL in data set [5] (hexane/IPA 7:3 + 0.02% TFA); 4 mg/mL in data set [5] (hexane/IPA 8:2 + 0.01% TFA); less than 0.5 mg/mL in data set [5] (i Pr2O); 47.5 mg/mL (≈ 121 mM) in data set [5] (isopropanol (IPA)); more than 100 mg/mL in data set [5] (methanol); 35.7 mg/mL (≈ 90.9 mM) in data set [5] (methyl isobutyl alcohol (MIBA)). Further, the solubility in data set [5] (methyl isobutyl ketone (MIBK)) was 4.4 mg/mL (≈ 11.2 mM); in data set [5] (toluene), less than 1 mg/mL.
